Data taken from patent US8658668B2, “PI3 kinase/mTOR dual inhibitor” (Eli Lilly and Company, priority 2011, dated 2014).
≈ marks a conversion by molar mass, not a printed value.

Assay: Solubility determination
Format: physicochemical
Procedure: Prepare a 2 mg/mL solution of Example 2 in each of the required media by weighing approximately 1 mg of compound into a vial and add the required volume (i.e. 0.5 mL) of the corresponding media into each vial. Place capped vial on a rotating mixture over night (˜16 hours) at ambient conditions, then filter using 0.22 um Ultrafree-MC filters (Millipore™) and measure pH of filtrate (Orion 720A pH meter). Prepare the sample for HPLC analysis by transferring 100 μL of the filtrate into a HPLC vial and add 900 μL of 50% acetonitrile/water solution.

Solubility, Average mg/mL (50 mM phosphate buffer at pH 2, average filtrate pH 2.31): ≧2.0 mg/mL | Solubility, Average mg/mL (50 mM phosphate buffer at pH 4, average filtrate pH 4.92): 1.0524 mg/mL (≈ 2590 µM) | Solubility, Average mg/mL (50 mM phosphate buffer at pH 6, average filtrate pH 6.14): 0.7178 mg/mL (≈ 1770 µM) | Solubility, Average mg/mL (50 mM phosphate buffer at pH 8, average filtrate pH 8.00): 0.6352 mg/mL (≈ 1560 µM) | Solubility, Average mg/mL (0.1N HCl, average filtrate pH 1.15, ~16 hours, ambient): ≧2.0 mg/mL | Solubility, Average mg/mL (Fast, simulated intestinal fluid fasted state, average filtrate pH 6.45): 1.0203 mg/mL (≈ 2510 µM) | Solubility, Average mg/mL (Fed, simulated intestinal fluid fed state, average filtrate pH 5.09): ≧2.0 mg/mL | Solubility, Average mg/mL (SGF, simulated gastric fluid, average filtrate pH 3.52): 1.7529 mg/mL (≈ 4310 µM)
SMILES: CO[C@@H](C)Cn1c(=O)n(C)c2cnc3ccc(-c4cncc(C(C)(C)O)c4)cc3c21 [Example 2, 8-[5-(1-Hydroxy-1-methylethyl)pyridin-3-yl]-1-[(2S)-2-methoxypropyl]-3-methyl-1,3-dihydro-2H-imidazo[4,5-c]quinolin-2-one, Form I]
